Test results published in patent US11453674B2, “Heterocyclic compound, preparation method and use thereof in medicine” (SUZHOU SINOVENT PHARMACEUTICALS CO., LTD., priority 2019, dated 2022).

Legend:
[1] = tested on: rat hepatocytes; assay: Metabolite study in rat hepatocyte incubation system; format: in vitro ADME; conditions: 180 min incubation, LC-MS
Description: (§1) Example 28: Study on Metabolites of Compound in Human and Rat Hepatocyte Incubation System
(§2) 1. Preparation of Stock and Working Solutions
(§3) Stock solution: A proper amount of test sample powders was dissolved in DMSO or other proper solvents, and the mixture was well mixed to give a stock solution (10 mM). The stock solution was preserved in a refrigerator at 4° C. for later use.
(§4) Working solution: The 10 mM stock solution was diluted to 1 mM working solution using acetonitrile, and well mixed for later use.
(§5) 2. Preparation of Thawing Medium I
(§6) Williams' Medium E, glutamate, HEPES, fetal bovine serum albumin, human recombinant insulin, dexamethasone, and cell separation medium (Percoll™) were mixed in a ratio of 700:10:15:50:1:0.1:300 for use.
(§7) 3. Preparation of Terminating Solution
(§8) An acetonitrile solution containing 0.1% formic acid was prepared as the terminating solution and preserved in a refrigerator at 4° C. for use.
(§9) 4. Isolation and Preparation of Hepatocyte Suspension
(§10) The cryopreserved hepatocytes were thawed in a water bath at 37° C. for about 90 s, and quickly poured into the pre-heated isolating buffer. Residual hepatocytes were washed using the isolating buffer. Cells were combined and mixed well, and centrifuged at room temperature for 5 min at 100×g. The supernatant was discarded and the cells were resuspended using pre-heated William' Medium E. 20 μL of hepatocyte suspension was added into 100 μL of 0.4% Trypan blue. The cells were counted, and a cell viability over 70% was required. The hepatocyte density was adjusted to 1.25×10^6 cells/mL using William' Medium E.
(§11) 5. Incubation and Treatment of Samples
(§12) 1) The test compound working solution was pre-incubated (pre-heated) in a constant-temperature incubator at 37° C. for 10 min. 2 μL of the working solution (1 mM) was pipetted to a cell culture plate containing 160 μL of hepatocyte suspension at 1.25×10^6 cells/mL, and the mixture was well mixed. 38 μL of Williams' Medium E was added. The mixture was well mixed and incubated in an incubator (in a total volume of 200 μL), and the timer was started. For the blank control, […] of Williams' Medium E was added instead of the working solution. For 0-min samples, 400 μL of acetonitrile (containing 0.1% formic acid) was added, followed by the working solution and Williams' Medium E.
(§13) 2) After 180 min of incubation, the samples were measured for the cell viability. Then 400 μL of acetonitrile (containing 0.1% formic acid) solution was added to terminate the reaction.
(§14) 3) After the reaction was terminated, the plate was shaken on a shaker at 300 rpm for 10 min, followed by centrifugation at least 10000×g for at least 10 min. After centrifugation, the supernatant was all transferred to centrifuge tubes and dried with nitrogen.
(§15) 4) The residues were re-dissolved in a suitable solvent, and centrifuged at least 10000×g for at least 15 min at room temperature. The supernatant was transferred to a sample analysis plate for LC-MS analysis.
(§16) 5) The methodology for 7-ethoxycoumarin (30 μM) was the same as that of test samples. Samples of the test compounds after incubation were used for metabolite assay only when the target metabolite was detected in the positive control sample. Otherwise, the above experiment should be repeated.
(§17) 6. Data Acquisition and Analysis […]

[2] = target: T1, CYP2C9 (Homo sapiens, UniProt P11712); assay: Inhibitory effect on CYP2C9 enzyme in microsomes (diclofenac probe); format: in vitro ADME; conditions: microsomes 0.25 mg/mL, diclofenac 10 μM; IC50 higher than that of benzbromarone
T1 construct: from tissue
Description: Example 27: Evaluating the Inhibitory Effects of Compounds on CYP2C9 Enzyme
The assay was performed in 100 mM phosphate buffer in a total volume of 200 μL. The microsome concentration in the reaction system was 0.25 mg/mL, the concentrations of the test compounds were 10, 3.33, 1.11, 0.37, 0.12, 0.04 and 0 μM, the CYP2C9-specific probe substrate and the concentration were diclofenac (10 μM). The mixture was pre-incubated in a 37° C. thermostatic oscillator for 5 min, and a NADPH-generating system (containing 1.3 mM NADP^+, 3.3 mM D(+)-glucopyranose-6-phosphate, […] glucose-6-phosphate dehydrogenase, 3.3 mM MgCl2) was added to start the reaction. After incubation for 10 min, the reaction was terminated by adding an equal volume of acetonitrile. The mixture was vortexed and centrifuged at 13,000 rpm. The resulting supernatant was loaded to LC-MS-MS to determine the content of metabolites. The metabolite of diclofenac specifically obtained by CYP2C9 metabolism pathway is 4-hydroxydiclofenac. Sulfaphenazole was adopted as a specific CYP2C9 inhibitor. In the experiment, analysis was performed by GraphPad Primsm 5.0 to calculate the half maximal inhibitory concentration (IC50 value).

[3] = tested on: human hepatocytes; assay: Metabolite study in human hepatocyte incubation system; format: in vitro ADME; conditions: 180 min incubation, LC-MS
Description: as §1, §2, §3, §4, §5, §6, §7, §8, §9, §10, §11, §12, §13, §14, §15, §16, §17

[4] = tested on: primary human hepatocytes; assay: Cytotoxicity assay on primary human hepatocytes (CellTiter-Glo, 48 h); format: cell-based; conditions: Hepatocyte, cell viability, 48 h incubation
Description: Example 26: Cytotoxicity Assay of Compounds on Primary Human Hepatocytes
Primary human hepatocytes were purchased from Biorecamation IVT. Co., Ltd. (lot no.: AKB/S1391); the components of in vitro culture media of primary human cell and suppliers are as follows:
1. Frozen primary human hepatocytes were thawed, then resuspended in a culture medium containing 10% FBS. The cells were transferred into a 96-well plate, at 8×10^4 cells/well, followed by incubating overnight in an incubator at 5% CO2 at 37° C.;
2. […] The test compounds and control drug were added to wells, at 100 μL/well, to form test compound wells or reference wells, and the culture medium containing 10% FBS was added to wells, at 100 μL/well, as negative control. The cells were incubated in an incubator in the presence of 5% CO2 at 37° C. for 48 h.
3. The primary human hepatocytes were washed with PBS (0.1 M, pH=7.4) twice, and were added with CellTiter-Glo reagent at 100 μL/well. Cell-free wells added with CellTiter-Glo reagent at 100 μL/well served as the blank control. The 96-well plate was shaken on a shaker for 5 min, and then left at room temperature for 10 min.
4. The chemiluminescence values were detected using Victor X4 (Perkin Elmer). The chemiluminescence values of the test compound wells were denoted as F(test compound), the chemiluminescence values of the blank control wells were denoted as F(blank), and the chemiluminescence values of the negative control wells were denoted as F(negative control). The cell viabilities at different concentrations were calculated according to the following formula. Each concentration was measured in triplicate to give the average and the standard deviation.
5. The half maximal inhibitory concentration (IC50) of the test compounds to the primary human hepatocytes were calculated using Prism Graph software.

T1 sequence (P11712 whole entry): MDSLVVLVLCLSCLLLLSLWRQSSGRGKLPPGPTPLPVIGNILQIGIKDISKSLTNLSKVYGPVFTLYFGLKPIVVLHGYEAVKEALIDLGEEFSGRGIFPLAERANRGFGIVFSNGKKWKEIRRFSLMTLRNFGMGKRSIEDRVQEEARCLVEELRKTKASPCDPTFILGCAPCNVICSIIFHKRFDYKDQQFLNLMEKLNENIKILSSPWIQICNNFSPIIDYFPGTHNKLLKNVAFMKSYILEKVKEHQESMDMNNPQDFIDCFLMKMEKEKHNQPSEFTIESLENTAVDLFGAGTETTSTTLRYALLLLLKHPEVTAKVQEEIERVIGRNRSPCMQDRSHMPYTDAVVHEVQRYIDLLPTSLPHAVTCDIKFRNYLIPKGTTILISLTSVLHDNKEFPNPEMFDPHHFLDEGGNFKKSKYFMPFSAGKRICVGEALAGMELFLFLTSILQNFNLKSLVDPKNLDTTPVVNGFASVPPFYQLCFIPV

SMILES	inhibitory effect on CYP enzymes (CYP2C9) [2]	toxic metabolites of benzbromarone type [1]	toxic metabolites of benzbromarone type [3]	IC50 [4] [µM]
CCc1nc2ncc(F)cn2c1C(=O)c1cc(Br)c(O)c(Br)c1 [Example 4, (3,5-dibromo-4-hydroxyphenyl)(2-ethyl-6-fluoroimidazo[1,2-a]pyrimidin-3-yl)methanone]	very low or no inhibitory effect	not observed	not observed	257
CCc1nc2ncc(F)cn2c1C(=O)c1cc(Br)c(O)c(C#N)c1 [Example 14, 3-bromo-5-(2-ethyl-6-fluoroimidazo[1,2-a]pyrimidine-3-carbonyl)-2-hydroxybenzonitrile]	very low or no inhibitory effect	not observed	not observed	≥ 1000

Second part, led by results:

inhibitory effect on CYP enzymes (CYP2C9) [2]	SMILES	toxic metabolites of benzbromarone type [1]	toxic metabolites of benzbromarone type [3]	IC50 [4] [µM]
very low or no inhibitory effect	CCc1nc2ncc(C(F)(F)F)cn2c1C(=O)c1cc(Br)c(O)c(Br)c1 [Example 5, (3,5-dibromo-4-hydroxyphenyl)(2-ethyl-6-(trifluoromethyl)imidazo[1,2-a]pyrimidin-3-yl)methanone]	not observed	not observed	77.8
very low or no inhibitory effect	CCc1nc2ncccn2c1C(=O)c1cc(Br)c(O)c(Br)c1 [Example 20, 2,6-dibromo-4-([2-ethylimidazo[1,2-a]pyrimidin-3-yl]carbonyl) phenol]	not observed	not observed	
very low or no inhibitory effect	CCc1nc2cc(Cl)ncn2c1C(=O)c1cc(Br)c(O)c(Br)c1 [Example 21, (7-chloro-2-ethylimidazo[1,2-f]pyrimidin-3-yl)(3,5-dibromo-4-hydroxyphenyl)methanone]	not observed	not observed	347
